The record followed here is patent US20040254136A1, “Antisense oligonucleotides and related methods for regulating cell death” (priority 2001, published 2004).

“Also recorded” adds a separate entry of the source.

For data set [1], the system named is wild-type sympathetic neurons. The experiment in a line: Survival of NGF-deprived (TFD) wild-type sympathetic neurons. The data set is classed as cell-based, mouse. To be noted: for protection from NGF withdrawal (survival): anti-NGF plus antisense oligonucleotides, scored daily for three days; for protection from TFD-induced death (survival): anti-NGF, BAF 50 μM, DEVD-FMK 10 μM. As for the experimental part:
(§1) Sympathetic neuron cultures were prepared from 1-day-old wild-type and caspase-2−/− mouse pups (Bergeron et al. 1998). Cultures were grown in 24-well collagen-coated dishes for survival experiments and in 6-well collagen-coated dishes for RNA and protein extraction in RPMI 1640 medium plus 10% horse serum with mouse NGF (100 ng/ml). One day following plating, uridine and 5-fluorodeoxyuridine (10 μM each) were added to the cultures and left for three days to eliminate non-neuronal cells (less than 1% non-neuronal cells remain after 3 days). For survival experiments, on the sixth day following plating, NGF was removed by washing the cultures three times with RPMI 1640 medium plus 10% horse serum, followed by the addition of medium containing anti-mouse NGF (1:200, Sigma). Caspase inhibitors (Enzyme Systems Products) were added as indicated. Each culture was scored, as previously described (Troy et al., 1997), for numbers of living, phase-bright neurons present in the same field at various times. Three replicate cultures were assessed for each condition and data are normalized to numbers of neurons present in each culture at the time of NGF deprivation and reported as mean±SEM. For RNA and protein extraction on the sixth day following plating, RNA and protein were extracted using the Trizol reagent according to the manufacturer's protocol.

Data set [2] has as its system caspase-2-null sympathetic neurons. Briefly: Survival of NGF-deprived (TFD) caspase-2-null sympathetic neurons. To be noted: caspase-2-null neurons; for protection from NGF withdrawal (survival): anti-NGF plus antisense oligonucleotides, scored daily for three days; for protection from TFD-induced death (survival): anti-NGF, BAF 50 μM, DEVD-FMK 10 μM. The data set is classed as cell-based, mouse. As for the experimental part: as §1

In another data set the test system is MIAP3. Briefly: Western blotting of MIAP3 after V-AMIAP3 treatment of PC12 cells. To be noted: within 5 hours. It is filed as cell-based. The method, then:
PC12 cells were treated with V-AMIAP3 (240 nM) for 6 hours. Cells lysates containing equal amounts of protein were subjected to Western blotting using the corresponding antisera. Actin staining confirmed equal loading. These are representative blots. Similar results were obtained in 2 independent experiments.
Postnatal day 1 mouse brains were harvested in sample buffer. For antisense down-regulation studies, PC12 cells, grown as previously described, were treated with various antisense constructs for 5 hours and harvested in sample buffer. Equal amounts of protein were separated by 15% PAGE, transferred to nitrocellulose and immunostained as described (Troy et al, 2000). Anti-caspase-9 (MBL) was used at 1:1000, anti-APAF-1 (StressGen) was used at 1:1000, anti-Smac was used at 1:2000, anti-XIAP (StressGen) was used at 1:1000, anti-RAIDD (StressGen) was used at 1:500 and anti-actin (Sigma) was used at 1:200. Visualization was with ECL, using goat-anti-rabbit peroxidase at 1:1000. The relative intensities of the protein bands were quantified using Scion Image 1.55 software (NIH).

For “GTTGTTGTCCATGGTCACTTT (chemistry not given here) [V-ACasp3, PENETRATIN1™-linked antisense oligonucleotide to caspase-3]”, the “protection from NGF withdrawal (survival)” value in data set [1] is “no protection”; in data set [2], “protected”.

As for `COC(=O)CC(NC(=O)OC(C)(C)C)C(=O)CF` (stereo not drawn) [BAF], the “protection from TFD-induced death (survival)” value in data set [1] and in data set [2] was “protects; also recorded: rescued” each time.

For “CTGCCGGTCCGCCTCGTCCAT (chemistry not given here) [V-ACasp9, PENETRATIN1™-linked antisense oligonucleotide to caspase-9]”, the “protection from NGF withdrawal (survival)” value in data set [1] is on record as “no protection”; in data set [2], “protected”.

As for `COC(=O)CC[C@H](NC(=O)[C@H](CC(=O)OC)NC(=O)OCc1ccccc1)C(=O)N[C@H](C(=O)N[C@@H](CC(=O)OC)C(=O)CF)C(C)C` [DEVD-FMK], the figures for the “protection from TFD-induced death (survival)” value in data set [1] and in data set [2] were “provided protection only for caspase-2-null neurons; also recorded: only the caspase-2-null neurons were rescued” and “provided protection; also recorded: rescued”, respectively.

As to “GTTAAAAGTCATCTTCTCTGG (chemistry not given here) [V-AMIAP3, PENETRATIN1™-linked antisense oligonucleotide to MIAP3]”, the “down-regulation of MIAP3” value in the data set on MIAP3 came out at 70%.
